From patent US20100144854A1 (priority 2007, published 2010)

Assays:
[1] = tested on: Primary cancer of the liver; experiment: Example 5: patient with primary liver cancer treated with rhodamine 6G; format: in vivo, human; design: Nuclear segments / Erythrocytes / Hemoglobin / Thrombocytes / Leukocytes / Amylase / Chlorine / Serum iron / Cholesterol / Total bilirubin / Bilirubin (line r8, above 'direct'): unit not given here; conditions: for Creatinine / Cholesterol / Total bilirubin / Potassium / ALT / AST / Bilirubin (line r8, above 'direct') / Serum iron / Total protein / Amylase / Chlorine / LDG / Bilirubin (line r10, above 'indirect') / direct (line r9) / indirect (line r11) / Phosphatase, alk. / Erythrocytes / Hemoglobin / Leukocytes / Thrombocytes / Basophils / Eosinophils / Nuclear rods / ESR / Monocytes / Lymphocytes / Nuclear segments: Example 5, Patient L; for Cholesterol: normal 1.66-8.3; for Total bilirubin: normal 2.90-6.54; for Potassium: normal 3.5-6.0; for ALT / AST: normal 5-40; for Bilirubin (line r8, above 'direct'): normal 8.5-20.5; for Serum iron: normal 8.8-27.0; for Total protein: normal 65.0-85.0; for Amylase: normal 95-110.0; for Chlorine: normal 135.0-; for LDG: normal 225-450; for Bilirubin (line r10, above 'indirect') / direct (line r9): normal up to 25%; for indirect (line r11): normal up to 100; for Phosphatase, alk.: normal up to 104; for Basophils: normal 0-1%; for Eosinophils: normal 0-5; for Nuclear rods: normal 1-6%; for ESR: normal 1-15 mm/hr; for Monocytes: normal 2-9%; for Lymphocytes: normal 18-40%; for Nuclear segments: normal 45-70
Experimental: Patient […]. Diagnosis: Primary cancer of the liver. One and a half years before, resection of part of the right hepatic lobe on account of liver cell carcinoma. Patient complained of pain in the right hypochondrium, dyspnea, ascites, intermittent retention of stools. Patient's condition moderately severe, loss of appetite, jaundice. […] The patient underwent bougienation of the umbilical vein. […] Subsequent procedures were carried out in exactly the same way twice a week. Only the preparation was administered intravenously. The course of treatment lasted 3 months. During the treatment the tumor in the affected region decreased in size to 0.5×0.7 cm. After 4 months a connective tissue scar of size 0.2×0.3 cm remained at the site of the tumor in the liver.

[2] = Tolerability on use in a wide range of dosages; format: in vivo; conditions: used in a wide range of dosages

“9-(2-ethoxycarbonyl)phenyl)-3,6-bis(ethylamino)2,7-dimethylxanthyl chloride [rhodamine 6G]” gave a Creatinine ([1]; 04 Feb. 2005) of 79 µM, a Cholesterol ([1]; 04 Feb. 2005) of 5.75 and a Total bilirubin ([1]; 04 Feb. 2005) of 8.4. The Potassium ([1]; 04 Feb. 2005) was 2.28, the ALT ([1]; 04 Feb. 2005) was 154.2 el and the AST ([1]; 04 Feb. 2005) was 103.8 el. The “Bilirubin (line r8, above 'direct')” value ([1]; 04 Feb. 2005) was 3.3, the Serum iron ([1]; 04 Feb. 2005) was 94.4 and the Total protein ([1]; 04 Feb. 2005) was 78. For the same substance, the Amylase ([1]; 04 Feb. 2005) was 102.8, the Chlorine ([1]; 04 Feb. 2005) was 114.31 and the LDG ([1]; 04 Feb. 2005) was 332 el. For the same substance, the “Bilirubin (line r10, above 'indirect')” value ([1]; 04 Feb. 2005) was 84%, the “direct (line r9)” value ([1]; 04 Feb. 2005) was 5.1% and the “indirect (line r11)” value ([1]; 04 Feb. 2005) was 89 el. The “Phosphatase, alk.” value ([1]; 04 Feb. 2005) was 4.55 el, the Creatinine ([1]; 07 Apr. 2005) was 67 µM and the Cholesterol ([1]; 07 Apr. 2005) was 7.03. The Total bilirubin ([1]; 07 Apr. 2005) was 8.0, the Potassium ([1]; 07 Apr. 2005) was 2.15 and the ALT ([1]; 07 Apr. 2005) was 40 el. The AST ([1]; 07 Apr. 2005) was 30.4 el, the “Bilirubin (line r8, above 'direct')” value ([1]; 07 Apr. 2005) was 2.0 and the Serum iron ([1]; 07 Apr. 2005) was 43.7. For the same substance, the Total protein ([1]; 07 Apr. 2005) was 64.34, the Amylase ([1]; 07 Apr. 2005) was 110.0 and the Chlorine ([1]; 07 Apr. 2005) was 134.2. The LDG ([1]; 07 Apr. 2005) was 362 el, the “Bilirubin (line r10, above 'indirect')” value ([1]; 07 Apr. 2005) was 90% and the “direct (line r9)” value ([1]; 07 Apr. 2005) was 6.0%. For the same substance, the “indirect (line r11)” value ([1]; 07 Apr. 2005) was 78.0 el, the “Phosphatase, alk.” value ([1]; 07 Apr. 2005) was 6.7 el and the Creatinine ([1]; 10 Nov. 2004) was 98 µM. It also gave a Cholesterol ([1]; 10 Nov. 2004) of 6.21, a Total bilirubin ([1]; 10 Nov. 2004) of 11.0 and a Potassium ([1]; 10 Nov. 2004) of 2.72. The ALT ([1]; 10 Nov. 2004) was 665.8 el, the AST ([1]; 10 Nov. 2004) was 554.5 el and the “Bilirubin (line r8, above 'direct')” value ([1]; 10 Nov. 2004) was 3.0. It also gave a Serum iron ([1]; 10 Nov. 2004) of 190.4, a Total protein ([1]; 10 Nov. 2004) of 43.43 and an Amylase ([1]; 10 Nov. 2004) of 114.0. For the same substance, the Chlorine ([1]; 10 Nov. 2004) was 114.20, the LDG ([1]; 10 Nov. 2004) was 879 el and the “Bilirubin (line r10, above 'indirect')” value ([1]; 10 Nov. 2004) was 82%. For the same substance, the “direct (line r9)” value ([1]; 10 Nov. 2004) was 8.0%, the “indirect (line r11)” value ([1]; 10 Nov. 2004) was 107.2 el and the “Phosphatase, alk.” value ([1]; 10 Nov. 2004) was 5.71 el. The Erythrocytes ([1]; 12 Nov. 2004) was 3.22, the Hemoglobin ([1]; 12 Nov. 2004) was 74 and the Leukocytes ([1]; 12 Nov. 2004) was 7.2. The Thrombocytes ([1]; 12 Nov. 2004) was 315, the Basophils ([1]; 12 Nov. 2004) was 1% and the Eosinophils ([1]; 12 Nov. 2004) was 1. It also gave a Nuclear rods ([1]; 12 Nov. 2004) of 1%, an ESR ([1]; 12 Nov. 2004) of 3.5 mm/hr and a Monocytes ([1]; 12 Nov. 2004) of 15%. It also gave a Lymphocytes ([1]; 12 Nov. 2004) of 9%, a Nuclear segments ([1]; 12 Nov. 2004) of 21 and an Erythrocytes ([1]; 14 Feb. 2005) of 4.37. It also gave a Hemoglobin ([1]; 14 Feb. 2005) of 117, a Leukocytes ([1]; 14 Feb. 2005) of 5.8 and a Thrombocytes ([1]; 14 Feb. 2005) of 286. The Eosinophils ([1]; 14 Feb. 2005) was 2, the Monocytes ([1]; 14 Feb. 2005) was 4% and the Lymphocytes ([1]; 14 Feb. 2005) was 23%. For the same substance, the Nuclear segments ([1]; 14 Feb. 2005) was 63, the Erythrocytes ([1]; 17 Apr. 2006) was 4.67 and the Hemoglobin ([1]; 17 Apr. 2006) was 123. For the same substance, the Leukocytes ([1]; 17 Apr. 2006) was 6.7, the Thrombocytes ([1]; 17 Apr. 2006) was 310 and the Basophils ([1]; 17 Apr. 2006) was 1%. For the same substance, the Eosinophils ([1]; 17 Apr. 2006) was 1, the ESR ([1]; 17 Apr. 2006) was 8.5 mm/hr and the Monocytes ([1]; 17 Apr. 2006) was 9%. The Lymphocytes ([1]; 17 Apr. 2006) was 37%, the Nuclear segments ([1]; 17 Apr. 2006) was 65 and the Erythrocytes ([1]; 19 Jan. 2005) was 3.60. The Hemoglobin ([1]; 19 Jan. 2005) was 80, the Leukocytes ([1]; 19 Jan. 2005) was 7.8 and the Thrombocytes ([1]; 19 Jan. 2005) was 362. It also gave an Eosinophils ([1]; 19 Jan. 2005) of 2, a Nuclear rods ([1]; 19 Jan. 2005) of 1% and a Monocytes ([1]; 19 Jan. 2005) of 4.3%. It also gave a Lymphocytes ([1]; 19 Jan. 2005) of 16%, a Nuclear segments ([1]; 19 Jan. 2005) of 44 and a Creatinine ([1]; 20 Dec. 2005) of 83 µM. For the same substance, the Cholesterol ([1]; 20 Dec. 2005) was 5.62, the Total bilirubin ([1]; 20 Dec. 2005) was 24.2 and the Potassium ([1]; 20 Dec. 2005) was 2.32. The ALT ([1]; 20 Dec. 2005) was 426 el, the AST ([1]; 20 Dec. 2005) was 432.9 el and the “Bilirubin (line r8, above 'direct')” value ([1]; 20 Dec. 2005) was 22.3. It also gave a Serum iron ([1]; 20 Dec. 2005) of 224.7, a Total protein ([1]; 20 Dec. 2005) of 49.90 and an Amylase ([1]; 20 Dec. 2005) of 140. The Chlorine ([1]; 20 Dec. 2005) was 115.3, the LDG ([1]; 20 Dec. 2005) was 556 el and the “Bilirubin (line r10, above 'indirect')” value ([1]; 20 Dec. 2005) was 96%. The “direct (line r9)” value ([1]; 20 Dec. 2005) was 11.9%, the “indirect (line r11)” value ([1]; 20 Dec. 2005) was 102 el and the “Phosphatase, alk.” value ([1]; 20 Dec. 2005) was 5.48 el. The “patient's complaints” value ([1]; Patient L, 64, at the present time) was “no complaints”, the blood analyses ([1]; Patient L, 64, during treatment) was “positive change” and the “allergic reactions or other side effects” value [2] was “does not produce any allergic reactions or other side effects”.
